Measurements: PubChem BioAssay AID248 (DTP/NCI, 2004)
Values joined by “and” are separate entries in the source; they are usually repeats but may differ in a detail not shown here. Equal entries are not always repeated. Toxic doses and inconclusive results are not listed. No stated cut-off is given here; in the data, active means T/C of 150% or more; inactive means T/C below 125%.

Tested on: L1210 leukemia ip in BDF1 mice, survival T/C
Experiment: NCI In Vivo Anticancer Drug Screen. Data for tumor model L1210 Leukemia (intraperitoneal) in B6D2F1 (BDF1) mice
Conditions: endpoint: mean survival time, higher = longer survival
Outline: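 Survival endpoint. Drug-treated group vs vehicle group, expressed as T divided by C. Tumor passaged by transplantation.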

[1] = dose: 100.0 mg/kg/injection, schedule: Q01DX009 (ip), vehicle: saline with Tween-80
[2] = dose: 200.0 mg/kg/injection, schedule: Q01DX009 (ip), vehicle: saline with Tween-80
[3] = dose: 400.0 mg/kg/injection, schedule: Q01DX009 (ip), vehicle: saline with Tween-80
[4] = dose: 100.0 mg/kg/injection, schedule: Q04DX002 (ip), vehicle: Klucel (hydroxypropylcellulose) (HPC)
[5] = dose: 200.0 mg/kg/injection, schedule: Q04DX002 (ip), vehicle: Klucel (hydroxypropylcellulose) (HPC)
[6] = dose: 100.0 mg/kg/injection, schedule: Q04DX003 (ip), vehicle: Klucel (hydroxypropylcellulose) (HPC)
[7] = dose: 200.0 mg/kg/injection, schedule: Q04DX003 (ip), vehicle: Klucel (hydroxypropylcellulose) (HPC)
[8] = dose: 400.0 mg/kg/injection, schedule: Q04DX003 (ip), vehicle: Klucel (hydroxypropylcellulose) (HPC)
[9] = dose: 100.0 mg/kg/injection, schedule: Q01DX001 (ip), vehicle: saline
[10] = dose: 200.0 mg/kg/injection, schedule: Q01DX001 (ip), vehicle: saline
[11] = dose: 400.0 mg/kg/injection, schedule: Q01DX001 (ip), vehicle: saline
[12] = dose: 100.0 mg/kg/injection, schedule: Q01DX001 (ip), vehicle: saline with Tween-80
[13] = dose: 200.0 mg/kg/injection, schedule: Q01DX001 (ip), vehicle: saline with Tween-80
[14] = dose: 400.0 mg/kg/injection, schedule: Q01DX001 (ip), vehicle: saline with Tween-80
[15] = dose: 50.0 mg/kg/injection, schedule: Q01DX009 (ip), vehicle: saline
[16] = dose: 100.0 mg/kg/injection, schedule: Q01DX009 (ip), vehicle: saline
[17] = dose: 200.0 mg/kg/injection, schedule: Q01DX009 (ip), vehicle: saline
[18] = dose: 100.0 mg/kg/injection, schedule: Q04DX003 (ip), vehicle: saline
[19] = dose: 200.0 mg/kg/injection, schedule: Q04DX003 (ip), vehicle: saline
[20] = dose: 400.0 mg/kg/injection, schedule: Q04DX003 (ip), vehicle: saline

Measured: T/C

O=C1/C(=C\c2ccccc2)C(Br)c2ccccc21 (centres undefined)
inactive: dose: 12.5 mg/kg/injection, schedule: Q01DX009 (ip), vehicle: water 95 % of control | dose: 12.5 mg/kg/injection, schedule: Q04DX003 (ip), vehicle: water 100 % of control | dose: 25.0 mg/kg/injection, schedule: Q01DX009 (ip), vehicle: water 97 % of control | dose: 25.0 mg/kg/injection, schedule: Q04DX003 (ip), vehicle: water 91 % of control | dose: 50.0 mg/kg/injection, schedule: Q01DX009 (ip), vehicle: water 100 % of control | dose: 50.0 mg/kg/injection, schedule: Q04DX003 (ip), vehicle: water 92 % of control

S=c1[nH]ccn1-c1ccccc1
inactive: dose: 100.0 mg/kg/injection, schedule: Q01DX001 (ip), vehicle: carboxymethylcellulose (CMC) 103 % of control | dose: 200.0 mg/kg/injection, schedule: Q01DX001 (ip), vehicle: carboxymethylcellulose (CMC) 110 % of control | dose: 400.0 mg/kg/injection, schedule: Q01DX001 (ip), vehicle: carboxymethylcellulose (CMC) 101 % of control

OCC1C2CCC(O2)C1CO (centres undefined)
inactive: dose: 0.75 mg/kg/injection, schedule: Q04DX002 (ip), vehicle: saline 96 % of control | dose: 1.5 mg/kg/injection, schedule: Q04DX002 (ip), vehicle: saline 93 % of control and 110 % of control | dose: 3.0 mg/kg/injection, schedule: Q04DX002 (ip), vehicle: saline 96 % of control | dose: 6.0 mg/kg/injection, schedule: Q04DX002 (ip), vehicle: saline 101 % of control and 115 % of control | dose: 12.5 mg/kg/injection, schedule: Q04DX002 (ip), vehicle: saline 101 % of control | dose: 25.0 mg/kg/injection, schedule: Q04DX002 (ip), vehicle: saline 108 % of control | dose: 50.0 mg/kg/injection, schedule: Q04DX002 (ip), vehicle: saline 111 % of control | dose: 100.0 mg/kg/injection, schedule: Q04DX002 (ip), vehicle: saline 105 % of control

COc1ccc(Cl)cc1NC(=O)c1ccc(Cl)cc1Cl
inactive: [1] 96 % of control | dose: 100.0 mg/kg/injection, schedule: Q04DX003 (ip), vehicle: saline with Tween-80 98 % of control | [2] 94 % of control | dose: 200.0 mg/kg/injection, schedule: Q04DX003 (ip), vehicle: saline with Tween-80 93 % of control | [3] 102 % of control | dose: 400.0 mg/kg/injection, schedule: Q04DX003 (ip), vehicle: saline with Tween-80 97 % of control

CCCCC(CC)CNC1CCCCC1 (centres undefined)
inactive: dose: 75.0 mg/kg/injection, schedule: Q01DX009 (ip), vehicle: Klucel (hydroxypropylcellulose) (HPC) 98 % of control | [4] 101 % of control | dose: 150.0 mg/kg/injection, schedule: Q01DX009 (ip), vehicle: Klucel (hydroxypropylcellulose) (HPC) 101 % of control | [5] 97 % of control

O=C1NC(O)C(O)N1 (centres undefined)
inactive: dose: 100.0 mg/kg/injection, schedule: Q01DX009 (ip), vehicle: Klucel (hydroxypropylcellulose) (HPC) 104 % of control | [6] 100 % of control | dose: 200.0 mg/kg/injection, schedule: Q01DX009 (ip), vehicle: Klucel (hydroxypropylcellulose) (HPC) 96 % of control | [7] 96 % of control | dose: 400.0 mg/kg/injection, schedule: Q01DX009 (ip), vehicle: Klucel (hydroxypropylcellulose) (HPC) 105 % of control | [8] 100 % of control

O=C(Nc1ccc([N+](=O)[O-])cc1Cl)c1ccc(C(=O)Nc2ccc([N+](=O)[O-])cc2Cl)cc1
inactive: [9] 96 % of control | [10] 94 % of control | [11] 91 % of control

CCC(C)(C1CCC(=O)CC1)C1CCC(=O)CC1
inactive: [9] 94 % of control | [10] 100 % of control | [11] 93 % of control

O=P(C1CCCC1)(C1CCCC1)C1CCCC1
inactive: [12] 100 % of control | [13] 94 % of control | [14] 92 % of control

CC(C)(C)CC(C)(C)c1ccc(OCCOc2ccccc2NS(=O)(=O)c2ccc(N)cc2)cc1
inactive: [15] 94 % of control | [16] 91 % of control | [17] 91 % of control

COc1cc(C=C(C#N)C#N)ccc1OC(=O)c1cc(OC)c(OC)c(OC)c1
inactive: dose: 100.0 mg/kg/injection, schedule: Q04DX002 (ip), vehicle: gum acacia 98 % of control | dose: 200.0 mg/kg/injection, schedule: Q04DX002 (ip), vehicle: gum acacia 92 % of control | dose: 400.0 mg/kg/injection, schedule: Q04DX002 (ip), vehicle: gum acacia 92 % of control

C1=Nc2c(ccc3ccccc23)CS1
inactive: dose: 100.0 mg/kg/injection, schedule: Q04DX002 (ip), vehicle: other 93 % of control

CC(C)(C)C#CCCl
inactive: [9] 96 % of control | [16] 116 % of control | [10] 105 % of control | [17] 97 % of control | [11] 94 % of control

COc1ccc2c(c1)CCC1C2=CC(=O)CC1c1ccco1 (centres undefined)
inactive: [6] 102 % of control | [7] 93 % of control | [8] 88 % of control

O=C(CCCCCCCCC(=O)N/N=C/c1ccc(O)cc1)N/N=C/c1ccc(O)cc1
inactive: [12] 90 % of control | [1] 89 % of control and 92 % of control | dose: 100.0 mg/kg/injection, schedule: Q04DX002 (ip), vehicle: saline with Tween-80 97 % of control and 100 % of control | [18] 97 % of control | [13] 92 % of control | [2] 100 % of control and 87 % of control | dose: 200.0 mg/kg/injection, schedule: Q04DX002 (ip), vehicle: saline with Tween-80 95 % of control and 97 % of control | [19] 92 % of control | [14] 95 % of control | [3] 101 % of control and 87 % of control | dose: 400.0 mg/kg/injection, schedule: Q04DX002 (ip), vehicle: saline with Tween-80 94 % of control and 92 % of control | [20] 88 % of control

c1ccc2cc3c(cc2c1)Cn1c-3nc2ccccc21
inactive: [9] 108 % of control | [16] 97 % of control | dose: 100.0 mg/kg/injection, schedule: Q01DX015 (ip), vehicle: saline 95 % of control | [18] 98 % of control | [10] 100 % of control | [17] 95 % of control | dose: 200.0 mg/kg/injection, schedule: Q01DX015 (ip), vehicle: saline 97 % of control | [19] 93 % of control | [11] 100 % of control | dose: 400.0 mg/kg/injection, schedule: Q01DX009 (ip), vehicle: saline 112 % of control | [20] 96 % of control

CCOC(=O)CN1C(=O)Cc2ccccc21
inactive: dose: 75.0 mg/kg/injection, schedule: Q04DX002 (ip), vehicle: saline with Tween-80 101 % of control | dose: 150.0 mg/kg/injection, schedule: Q04DX002 (ip), vehicle: saline with Tween-80 108 % of control | dose: 300.0 mg/kg/injection, schedule: Q04DX002 (ip), vehicle: saline with Tween-80 104 % of control

COc1ccc(/C=C/C(=O)c2ccc3c(c2)OCO3)cc1O
inactive: [15] 100 % of control | [16] 93 % of control | [18] 93 % of control | [17] 100 % of control | [19] 97 % of control | dose: 300.0 mg/kg/injection, schedule: Q01DX009 (ip), vehicle: saline 120 % of control | [20] 87 % of control

O=C(CCCCC(=O)Nc1cc(C2=NCCN2)cc(C2N=CCN2)c1)Nc1cc(C2=NCCN2)cc(C2=NCCN2)c1 (centres undefined)
inactive: dose: 2.2 mg/kg/injection, schedule: Q01DX Z (ip), vehicle: methylcellulose (MC) 96 % of control | dose: 3.0 mg/kg/injection, schedule: Q01DX Z (ip), vehicle: methylcellulose (MC) 106 % of control | dose: 5.0 mg/kg/injection, schedule: Q01DX Z (ip), vehicle: carboxymethylcellulose (CMC) 120 % of control | dose: 5.0 mg/kg/injection, schedule: Q01DX Z (ip), vehicle: methylcellulose (MC) 101 % of control | dose: 9.0 mg/kg/injection, schedule: Q01DX Z (ip), vehicle: methylcellulose (MC) 87 % of control | dose: 10.0 mg/kg/injection, schedule: Q01DX Z (ip), vehicle: carboxymethylcellulose (CMC) 100 % of control | dose: 15.0 mg/kg/injection, schedule: Q01DX Z (ip), vehicle: carboxymethylcellulose (CMC) 94 % of control

CC(=O)C1CCCC(=O)/C=C/C(=O)O1 (centres undefined)
inactive: [4] 92 % of control | [5] 100 % of control
